Data reported in patent publication US10047096B2, “Substituted pyridobenzodiazepinone-derivatives and use thereof” (Bayer Pharma Aktiengesellschaft, priority 2014, dated 2018).

Biological target: human PDGFRβ (Homo sapiens (Human), UniProt P09619)
Test: PDGFRβ kinase assay (PDGFRβ-HTRF)
Format: biochemical
Settings: 10 μM ATP; some mean values from multiple determinations
Protocol: The PDGFRβ-inhibitory activity of the inventive compounds was determined in the PDGFRβ-HTRF assay described hereinafter.
The kinase used was a recombinant fusion protein composed of N-terminal GST and a C-terminal fragment of human PDGFRβ (amino acids R561-L1106), expressed in baculovirus-infected insect cells (Sf9) and purified by affinity chromatography (from ProQinase GmbH, Freiburg, Germany). The substrate used for the kinase reaction was biotinylated poly-Glu,Tyr (4:1) copolymer (from Cisbio Bioassays, Codolet, France).
For the assay, 50 nl of a 100-fold concentrated solution of the test substance in DMSO was pipetted into a black “low-volume 384 well” microtitre plate (from Greiner Bio-One, Frickenhausen, Germany), then 2 μl of a solution of PDGFRβ in assay buffer [50 mM HEPES/NaOH pH 7.5, 10 mM MgCl2, 2.5 mM dithiothreitol, 0.01% (v/v) Triton-X100 (from Sigma)] was added and the mixture was incubated for 15 min, in order to enable preliminary binding of the substance to the enzyme before the kinase reaction. […] The resulting mixture was incubated at 22° C. for 1 h to allow formation of a complex of the biotinylated phosphorylated substrate and the detection reagents.
Subsequently, the amount of the phosphorylated substrate was evaluated by measuring the resonance energy transfer from the PT66-Eu chelate to the streptavidin-XL665. […] The IC50 values were calculated by a 4-parameter fit.

Sequence of human PDGFRβ (P09619 561-1106): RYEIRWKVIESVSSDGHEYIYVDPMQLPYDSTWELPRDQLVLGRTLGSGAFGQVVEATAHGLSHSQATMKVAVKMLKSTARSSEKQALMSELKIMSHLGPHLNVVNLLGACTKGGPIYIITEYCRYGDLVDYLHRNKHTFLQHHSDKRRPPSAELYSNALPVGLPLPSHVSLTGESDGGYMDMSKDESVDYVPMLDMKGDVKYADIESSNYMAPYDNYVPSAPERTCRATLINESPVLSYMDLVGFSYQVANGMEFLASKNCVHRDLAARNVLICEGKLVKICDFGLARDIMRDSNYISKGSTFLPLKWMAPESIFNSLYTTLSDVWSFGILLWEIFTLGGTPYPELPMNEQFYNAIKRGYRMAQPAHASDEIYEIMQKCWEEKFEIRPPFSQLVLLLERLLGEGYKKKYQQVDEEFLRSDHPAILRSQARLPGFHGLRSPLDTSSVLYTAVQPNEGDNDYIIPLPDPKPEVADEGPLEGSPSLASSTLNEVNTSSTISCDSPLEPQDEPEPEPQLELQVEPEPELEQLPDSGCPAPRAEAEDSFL

Row | SMILES | IC50
1 | Cc1cc(F)c(Nc2ccnc3c2C(=O)Nc2cc(C(=O)N4CCCC(CCO)C4)ccc2N3)cc1O (racemic) [Example 179, rac-4-[(2-Fluoro-5-hydroxy-4-methylphenyl)amino]-8-{[3-(2-hydroxyethyl)piperidin-1-yl]carbonyl}-6,11-dihydro-5H-pyrido[2,3-b][1,5]benzodiazepin-5-one] | 14.6 nM
2 | Cc1cc(F)c(Nc2ccnc3c2C(=O)Nc2cc(C(=O)N4CCC(CCO)C4)ccc2N3)cc1O (racemic) [Example 181, rac-4-[(2-Fluoro-5-hydroxy-4-methylphenyl)amino]-8-{[3-(2-hydroxyethyl)pyrrolidin-1-yl]carbonyl}-6,11-dihydro-5H-pyrido[2,3-b][1,5]benzodiazepin-5-one] | 8.91 nM
3 | Cc1cc(F)c(Nc2ccnc3c2C(=O)Nc2cc(CN4CCN5C(=O)C(C)NC(=O)C5C4)ccc2N3)cc1O (racemic) [Example 194, rac-8-({4-[(2-Fluoro-5-hydroxy-4-methylphenyl)amino]-5-oxo-6,11-dihydro-5H-pyrido[2,3-b][1,5]benzodiazepin-8-yl}methyl)-3-methyltetrahydro-2H-pyrazino[1,2-a]pyrazine-1,4(3H,6H)-dione] | 1.92 nM
4 | CCN(Cc1ccc2c(c1)NC(=O)c1c(Nc3cc(O)c(C)cc3F)ccnc1N2)CC(C)O (racemic) [Example 204, rac-8-{[Ethyl(2-hydroxypropyl)amino]methyl}-4-[(2-fluoro-5-hydroxy-4-methylphenyl)amino]-6,11-dihydro-5H-pyrido[2,3-b][1,5]benzodiazepin-5-one] | 1.71 nM
5 | CCN(Cc1ccc2c(c1)NC(=O)c1c(Nc3cc(O)c(C)cc3F)ccnc1N2)CC(C)O (single isomer, unassigned; ent-8) [Example 205, ent-8-{[Ethyl(2-hydroxypropyl)amino]methyl}-4-[(2-fluoro-5-hydroxy-4-methylphenyl)amino]-6,11-dihydro-5H-pyrido[2,3-b][1,5]benzodiazepin-5-one (Enantiomer 1)] | 1.76 nM
6 | CCN(Cc1ccc2c(c1)NC(=O)c1c(Nc3cc(O)c(C)cc3F)ccnc1N2)CC(C)O (single isomer, unassigned; ent-8) [Example 206, ent-8-{[Ethyl(2-hydroxypropyl)amino]methyl}-4-[(2-fluoro-5-hydroxy-4-methylphenyl)amino]-6,11-dihydro-5H-pyrido[2,3-b][1,5]benzodiazepin-5-one (Enantiomer 2)] | 1.55 nM
7 | Cc1ccc(O)cc1Nc1ccnc2c1C(=O)Nc1cc(C#N)ccc1N2 [Example 1, 4-[(5-Hydroxy-2-methylphenyl)amino]-5-oxo-6,11-dihydro-5H-pyrido[2,3-b][1,5]benzodiazepine-8-carbonitrile] | 5.43 nM
8 | CCCc1ccc(Nc2ccnc3c2C(=O)Nc2cc(C#N)ccc2N3)cc1O [Example 2, 4-[(3-Hydroxy-4-propylphenyl)amino]-5-oxo-6,11-dihydro-5H-pyrido[2,3-b][1,5]benzodiazepine-8-carbonitrile] | 862 nM
9 | Cc1ccc(Nc2ccnc3c2C(=O)Nc2cc(C#N)ccc2N3)cc1O [Example 3, 4-[(3-Hydroxy-4-methylphenyl)amino]-5-oxo-6,11-dihydro-5H-pyrido[2,3-b][1,5]benzodiazepine-8-carbonitrile] | 3.82 nM
10 | CCOC(=O)Nc1ccc(Nc2ccnc3c2C(=O)Nc2cc(C#N)ccc2N3)cc1O [Example 4, Ethyl {4-[(8-cyano-5-oxo-6,11-dihydro-5H-pyrido[2,3-b][1,5]benzodiazepin-4-yl)amino]-2-hydroxyphenyl}carbamate] | 352 nM
11 | N#Cc1ccc2c(c1)NC(=O)c1c(Nc3ccc(NS(=O)(=O)c4ccccc4)c(O)c3)ccnc1N2 [Example 6, N-{4-[(8-Cyano-5-oxo-6,11-dihydro-5H-pyrido[2,3-b][1,5]benzodiazepin-4-yl)amino]-2-hydroxyphenyl}benzenesulphonamide] | 689 nM
12 | N#Cc1ccc2c(c1)NC(=O)c1c(Nc3cc(O)c(Br)cc3F)ccnc1N2 [Example 7, 4-[(4-Bromo-2-fluoro-5-hydroxyphenyl)amino]-5-oxo-6,11-dihydro-5H-pyrido[2,3-b][1,5]benzodiazepine-8-carbonitrile] | 9.47 nM
13 | N#Cc1ccc2c(c1)NC(=O)c1c(Nc3cc(O)c(F)c(F)c3)ccnc1N2 [Example 8, 4-[(3,4-Difluoro-5-hydroxyphenyl)amino]-5-oxo-6,11-dihydro-5H-pyrido[2,3-b][1,5]benzodiazepine-8-carbonitrile] | 4.76 nM
14 | COc1cc(O)cc(Nc2ccnc3c2C(=O)Nc2cc(C#N)ccc2N3)c1 [Example 9, 4-[(3-Hydroxy-5-methoxyphenyl)amino]-5-oxo-6,11-dihydro-5H-pyrido[2,3-b][1,5]benzodiazepine-8-carbonitrile] | 3.83 nM
15 | N#Cc1ccc2c(c1)NC(=O)c1c(Nc3cc(O)c(Cl)cc3Cl)ccnc1N2 [Example 10, 4-[(2,4-Dichloro-5-hydroxyphenyl)amino]-5-oxo-6,11-dihydro-5H-pyrido[2,3-b][1,5]benzodiazepine-8-carbonitrile] | 65.9 nM
16 | N#Cc1ccc2c(c1)NC(=O)c1c(Nc3ccc(Cl)c(O)c3)ccnc1N2 [Example 11, 4-[(4-Chloro-3-hydroxyphenyl)amino]-5-oxo-6,11-dihydro-5H-pyrido[2,3-b][1,5]benzodiazepine-8-carbonitrile] | 4.03 nM
17 | N#Cc1ccc2c(c1)NC(=O)c1c(Nc3ccc(O)c(O)c3)ccnc1N2 [Example 12, 4-[(3,4-Dihydroxyphenyl)amino]-5-oxo-6,11-dihydro-5H-pyrido[2,3-b][1,5]benzodiazepine-8-carbonitrile] | 84.4 nM
18 | N#Cc1ccc2c(c1)NC(=O)c1c(Nc3cc(O)ccc3F)ccnc1N2 [Example 13, 4-[(2-Fluoro-5-hydroxyphenyl)amino]-5-oxo-6,11-dihydro-5H-pyrido[2,3-b][1,5]benzodiazepine-8-carbonitrile] | 21.9 nM
19 | Cc1ccc(O)cc1Nc1ccnc2c1C(=O)Nc1cc(CNCC(F)(F)F)ccc1N2 [Example 14, 4-[(5-Hydroxy-2-methylphenyl)amino]-8-{[(2,2,2-trifluoroethyl)amino]methyl}-6,11-dihydro-5H-pyrido[2,3-b][1,5]benzodiazepin-5-one] | 9.14 nM
20 | Cc1ccc(O)cc1Nc1ccnc2c1C(=O)Nc1cc(CNCc3cccc(Cl)c3)ccc1N2 [Example 15, 8-{[(3-Chlorobenzyl)amino]methyl}-4-[(5-hydroxy-2-methylphenyl)amino]-6,11-dihydro-5H-pyrido[2,3-b][1,5]benzodiazepin-5-one] | 5.77 nM
21 | Cc1ccc(O)cc1Nc1ccnc2c1C(=O)Nc1cc(CNCC(N)=O)ccc1N2 [Example 16, N^2-({4-[(5-Hydroxy-2-methylphenyl)amino]-5-oxo-6,11-dihydro-5H-pyrido[2,3-b][1,5]benzodiazepin-8-yl}methyl)glycinamide] | 7.05 nM
22 | Cc1ccc(O)cc1Nc1ccnc2c1C(=O)Nc1cc(CNCCCCO)ccc1N2 [Example 17, 8-{[(4-Hydroxybutyl)amino]methyl}-4-[(5-hydroxy-2-methylphenyl)amino]-6,11-dihydro-5H-pyrido[2,3-b][1,5]benzodiazepin-5-one] | 5.63 nM
23 | Cc1ccc(O)cc1Nc1ccnc2c1C(=O)Nc1cc(CNCCN3CCOCC3)ccc1N2 [Example 18, 4-[(5-Hydroxy-2-methylphenyl)amino]-8-({[2-(morpholin-4-yl)ethyl]amino}methyl)-6,11-dihydro-5H-pyrido[2,3-b][1,5]benzodiazepin-5-one] | 5.19 nM
24 | Cc1ccc(O)cc1Nc1ccnc2c1C(=O)Nc1cc(CNC3CCC3)ccc1N2 [Example 20, 8-[(Cyclobutylamino)methyl]-4-[(5-hydroxy-2-methylphenyl)amino]-6,11-dihydro-5H-pyrido[2,3-b][1,5]benzodiazepin-5-one] | 2.89 nM
25 | CNCc1ccc2c(c1)NC(=O)c1c(Nc3cc(O)ccc3C)ccnc1N2 [Example 22, 4-[(5-Hydroxy-2-methylphenyl)amino]-8-[(methylamino)methyl]-6,11-dihydro-5H-pyrido[2,3-b][1,5]benzodiazepin-5-one] | 2.84 nM
26 | CCCCNCc1ccc2c(c1)NC(=O)c1c(Nc3cc(O)ccc3C)ccnc1N2 [Example 23, 8-[(Butylamino)methyl]-4-[(5-hydroxy-2-methylphenyl)amino]-6,11-dihydro-5H-pyrido[2,3-b][1,5]benzodiazepin-5-one] | 2.98 nM
27 | Cc1ccc(O)cc1Nc1ccnc2c1C(=O)Nc1cc(CNCCO)ccc1N2 [Example 24, 8-{[(2-Hydroxyethyl)amino]methyl}-4-[(5-hydroxy-2-methylphenyl)amino]-6,11-dihydro-5H-pyrido[2,3-b][1,5]benzodiazepin-5-one] | 4.74 nM
28 | CCNCc1ccc2c(c1)NC(=O)c1c(Nc3cc(O)ccc3C)ccnc1N2 [Example 25, 8-[(Ethylamino)methyl]-4-[(5-hydroxy-2-methylphenyl)amino]-6,11-dihydro-5H-pyrido[2,3-b][1,5]benzodiazepin-5-one] | 3.25 nM
29 | Cc1ccc(O)cc1Nc1ccnc2c1C(=O)Nc1cc(CNc3ccccc3)ccc1N2 [Example 26, 8-Anilinomethyl-4-[(5-hydroxy-2-methylphenyl)amino]-6,11-dihydro-5H-pyrido[2,3-b][1,5]benzodiazepin-5-one] | 60.3 nM
